Data published in PMC11085086, “Microwave-Assisted Atom Transfer Radical Cyclization in the Synthesis of 3,3-Dichloro-γ- and δ-Lactams from N-Alkenyl-Tethered Trichloroacetamides Catalyzed by RuCl2(PPh3)3 and Their Cytotoxic Evaluation” (Molecules, 2024).

Columns and labels:
Assay type in all cases: cell-based
[1] = system: murine Swiss albino fibroblasts (3T3); assay: Cell viability assay, NRU endpoint, 3T3; conditions: Mus musculus, Fibroblast, 3T3, 24 h incubation, 10–250 µg/mL
Description: (§1) The murine Swiss albino fibroblasts (3T3), the human breast adenocarcinoma (MCF-7), the human epithelial carcinoma (HeLa) and the squamous cell carcinoma (A431) cell lines were obtained from Celltec UB. Cells were grown in DMEM medium (4.5 g/L glucose) supplemented with 10% (v/v) FBS, 2 mM L-glutamine, 100 U/mL penicillin and 100 µg/mL streptomycin at 37 °C, 5% CO2. Cells were routinely cultured in 75 cm^2 culture flasks and were trypsinized using trypsin–EDTA when the cells reached approximately 80% confluence. The trypan blue assay, which allows for a direct identification and enumeration of the live (unstained) and dead (blue) cells in the cell population, was used to evaluate the viability of the cells in the cell suspension obtained.
(§2) 3T3 (1 × 10^5 cells/mL), A431, HeLa and MCF-7 cells (5 × 10^4 cells/mL) were grown at defined densities in the 60 central wells of a 96-well plate. Cells were incubated for 24 h in 5% CO2 at 37 °C. Then, the spent medium was removed, and cells were incubated for 24 h with their corresponding compound solutions (1 mg/mL) previously diluted in a minimum amount of DMF (dimethylformamide) and then in DMEM medium supplemented with 5% FBS (100 µL) at the required concentration range (10–250 µg/mL). The viability of the cells upon incubation with the lactam derivatives was assayed using 2 different endpoints: NRU and MTT.
(§3) The neutral red uptake (NRU) assay is based on the accumulation of dye in the lysosomes of viable cells. After the cells were incubated for 24 h with the corresponding systems, the medium was removed, and the solutions were incubated with the NR dye (Sigma-Aldrich, St. Louis, MO, USA) solution (50 µg/mL) dissolved in the medium, without FBS and without phenol red (Lonza, Verviers, Belgium), for 3 h. Cells were then washed with sterile PBS, followed by the addition of 100 µL of a solution containing 50% absolute ethanol and 1% acetic acid in distilled water to extract the dye. To promote the total dissolution of the dye, plates were placed in a microtiter-plate shaker for 5 min at room temperature. The absorbance of the resulting solutions was measured at 550 nm (Bio-Rad 550 microplate reader, Bio-Rad California, Hercules, CA, USA). Finally, the effect of each treatment was calculated as the percentage of dye uptake by viable cells relative to the control cells (cells without any treatment).
(§4) The corresponding half-maximal inhibitory concentration (IC50) values for the different formulations as a function of the cell line and endpoint were determined from the fitting of concentration-dependent viability curves. The corresponding selectivity indexes toward tumoral cells were calculated using the following ratio: SI = IC50 (non-tumoral cell line)/IC50 (tumoral cell line) where 3T3 fibroblasts were used as close representative cells under non-tumoral conditions. Moreover, pseudo selectivity indexes toward tumoral cells were calculated considering the discrete cellular responses at the maximum tested concentration (250 µg/mL).

[2] = system: human epithelial carcinoma (HeLa) cell line; assay: Cell viability assay, NRU endpoint, HeLa; conditions: 24 h incubation, 10–250 µg/mL
Description: as §1, §2, §3, §4

[3] = system: murine Swiss albino fibroblasts (3T3); assay: Cell viability assay, MTT endpoint, 3T3; conditions: Mus musculus, Fibroblast, 3T3, 24 h incubation, 10–250 µg/mL
Description: as §1, §2
(§5) Only living cells can reduce the yellow tetrazolium salt 3-(4,5-dimethyl-2-thiazolyl)-2,5-diphenyltetrazolium bromide (MTT) to insoluble purple formazan crystals. After a 24 h incubation of the cells with their corresponding NPs, the medium was removed and 100 µL of MTT (Sigma-Aldrich, St. Louis, USA) in PBS (5 mg/mL) diluted 1:10 in culture medium without phenol red and without FBS (Lonza, Verviers, Belgium) was added to the cells. After 3 h of incubation, the medium was removed. Thereafter, 100 µL of DMSO (Sigma-Aldrich, St. Louis, MO, USA) was added to each well to dissolve the purple formazan crystals. Agitation and determination of the absorbance of the extracted solution were performed under the same conditions as described in NRU Assay section. Finally, the effect of each treatment was calculated as the percentage of tetrazolium salt’s reduction by viable cells relative to control cells (cells without any treatment).
as §4

[4] = system: squamous cell carcinoma (A431) cell line; assay: Cell viability assay, NRU endpoint, A431; conditions: for IC50: Homo sapiens, A-431, 24 h, A431, 24 h incubation, 10–250 µg/mL; for SI250 (selective toxicity at 250 µg/mL): A431 compared to 3T3, 250 µg/mL, 24 h
Description: as §1, §2, §3, §4

[5] = Cell viability assay, MTT endpoint, cell line not specified; conditions: under discrete conditions, up to 250 µg/mL, read-out: minimum cell viability values
Description: as §1
3T3 (1 × 10^5 cells/mL), A431, HeLa and MCF-7 cells (5 × 10^4 cells/mL) were grown at defined densities in the 60 central wells of a 96-well plate. […]
Only living cells can reduce the yellow tetrazolium salt 3-(4,5-dimethyl-2-thiazolyl)-2,5-diphenyltetrazolium bromide (MTT) to insoluble purple formazan crystals. […] Agitation and determination of the absorbance of the extracted solution were performed under the same conditions as described in NRU Assay section. Finally, the effect of each treatment was calculated as the percentage of tetrazolium salt’s reduction by viable cells relative to control cells (cells without any treatment).

[6] = system: squamous cell carcinoma (A431) cell line; assay: Cell viability assay, MTT endpoint, A431; conditions: for SI250 (selective toxicity at 250 µg/mL): A431 compared to 3T3, 250 µg/mL, 24 h; for IC50: Homo sapiens, A-431, 24 h, A431, 24 h incubation, 10–250 µg/mL
Description: as §1, §2, §5, §4

[7] = Hemolysis assay with human erythrocyte suspension; conditions: human, washed human erythrocyte suspension, PBS pH 7.4, read-out: degree of hemolysis
Description: (§6) Human blood samples were obtained from the Banc de Sang i Teixits de Barcelona (Spain) from the Catalan Department of Health. Blood was deposited in tubes with the anticoagulant EDTA-K3. Blood samples were centrifuged at 3000 rpm and 4 °C for 10 min (Megafuge 2.0 R. Heraeus Instruments, Hanau, Germany) to induce sedimentation. Plasma was extracted with a Pasteur pipette. Next, the residual pellet was washed with PBS at pH 7.4. This procedure was repeated three times to remove residual leukocytes and platelets and to concentrate the erythrocytes. Following the last wash, the erythrocyte suspension was diluted (1:1) in PBS at pH 7.4 to obtain a suitable erythrocyte suspension (cell density of 8 × 10^9 cell/mL).
(§7) The hemolysis assay determined the capability of different compounds to induce the hemolysis of the erythrocyte membrane. Stock solutions of each compound at 1 mg/mL in PBS at pH 7.4 were prepared. Different volumes (10–80 μL) were placed in polystyrene tubes, and an aliquot of 25 µL of the erythrocyte suspensions was added to each tube. The final volume was 1 mL. The tubes were incubated at room temperature under rotatory conditions. Then, the tubes were centrifuged at 10,000 rpm for 5 min. The supernatants’ absorbance at 540 nm (Shimadzu UV-160A, Shimadzu, Duisburg, Germany) was compared with that of the positive (erythrocytes hemolyzed with distilled water) and negative (erythrocyte suspension in PBS at pH 7.4.) controls.
(§8) The degree of hemolysis was determined using the following equation:Hemolysis (%) = 100 × (Abs − Abs0)/(Abs100 − Abs0) where Abs, Abs0 and Abs100 are the absorbance of the test samples, of the suspension treated with isotonic phosphate–buffered saline (PBS) and of the suspension of complete hemolysis treated with distilled water, respectively.

human erythrocytes = assay: Hemolysis assay with human erythrocyte suspension; conditions: 80 µg/mL, PBS pH 7.4
Description: as §6, §7, §8

[8] = system: human epithelial carcinoma (HeLa) cell line; assay: Cell viability assay, MTT endpoint, HeLa; conditions: HeLa; for IC50: Homo sapiens, 24 h, 24 h incubation, 10–250 µg/mL
Description: as §1, §2, §5, §4

[9] = system: human breast adenocarcinoma (MCF-7) cell line; assay: Cell viability assay, NRU endpoint, MCF-7; conditions: for IC50: Homo sapiens, MCF7, 24 h incubation, 10–250 µg/mL; for SI250 (selective toxicity at 250 µg/mL): MCF-7 compared to 3T3, 250 µg/mL, 24 h
Description: as §1, §2, §3, §4

[10] = Cell viability assay, NRU endpoint, cell line not specified; conditions: up to 250 µg/mL, read-out: minimum cell viability values
Description: as §1, §2, §3

[11] = system: human breast adenocarcinoma (MCF-7) cell line; assay: Cell viability assay, MTT endpoint, MCF-7; conditions: for IC50: Homo sapiens, MCF7, 24 h incubation, 10–250 µg/mL
Description: as §1, §2, §5, §4

[12] = Cell viability assay, MTT endpoint, A431; conditions: human, A431 squamous cell carcinoma cells, A431, highest assayed concentration 250 µg/mL, 24 h
Description: as §1, §2, §5, §4

Structure (SMILES) | IC50 [1] | IC50 [2] | IC50 [3] | IC50 [4] | viability at 24 h [5] | SI250 (selective toxicity at 250 µg/mL) [6] | IC50 [6] | hemolysis at 10 µg/mL [7] | degree of hemolysis (human erythrocytes) | IC50 [8] | IC50 [9] | viability at 24 h [10] | IC50 ([11]; MTT) | viability at 24 h, 250 µg/mL [12] | hemolysis at 80 µg/mL [7] | SI250 (selective toxicity at 250 µg/mL) [9] | SI250 (selective toxicity at 250 µg/mL) [4] | SI250 (selective toxicity at 250 µg/mL) ([11]; MTT, MCF-7 compared to 3T3, 250 µg/mL, 24 h) | effect on proliferation of tumor cells ([8]; under the assayed conditions) | effect on proliferation of tumor cells ([11]; MCF-7, MTT, under the assayed conditions)
O=C1NCC(CCl)C1(Cl)Cl (stereo not drawn) [2b, 3,3-Dichloro-4-(chloromethyl)pyrrolidin-2-one] | > 250 µg/mL | > 250 µg/mL | > 250 µg/mL | > 250 µg/mL | 60 to 70% | 1.1 | > 250 µg/mL | 0.02% | remained stable | > 250 µg/mL | > 250 µg/mL | 80 to 85% | > 250 µg/mL | – | – | – | – | – | – | –
O=C1N(c2ccccc2)CC(CCl)C1(Cl)Cl (stereo not drawn) [2d, 3,3-Dichloro-4-(chloromethyl)-1-phenylpyrrolidin-2-one] | > 250 µg/mL | > 250 µg/mL | > 250 µg/mL | > 250 µg/mL | – | 1.4 | – | 0.005% | – | > 250 µg/mL | > 250 µg/mL | 80 to 85% | > 250 µg/mL | 50% | 0.1% | one | – | – | – | –
CC(C)(C)N1CCC(CCl)C(Cl)(Cl)C1=O (stereo not drawn) [2i, 1-(tert-Butyl)-3,3-dichloro-4-(chloromethyl)piperidin-2-one] | > 250 µg/mL | > 250 µg/mL | > 250 µg/mL | > 250 µg/mL | – | 1.1 | > 250 µg/mL | 0.003% | – | > 250 µg/mL | > 250 µg/mL | 70% | > 250 µg/mL | – | ~0.07% | one | 1.1 | one | – | –
O=C1CCC(N2CC(CCl)C(Cl)(Cl)C2=O)CC1 (stereo not drawn) [2p] | > 250 µg/mL | > 250 µg/mL | > 250 µg/mL | > 250 µg/mL | 60 to 70% | – | > 250 µg/mL | 0.005% | – | > 250 µg/mL | > 250 µg/mL | 100% | > 250 µg/mL | – | ~0.07% | one | 1.1 | – | could promote the proliferation | could promote the proliferation
